One assay concerns pSTAT5 NT in CD4 T cells. The experiment in a line: PLA2-GIB bioassay on CD4 T cells: pSTAT5 nuclear translocation in response to IL-7, confocal microscopy. The format is cell-based, human. The source says: Purification of Human CD4 T-lymphocytes—Venous blood was obtained from healthy volunteers through the EFS (Etablissement Français du Sang, Centre Necker-Cabanel, Paris). CD4 T-cells were purified from whole blood using RosetteSep Human CD4+ T cell Enrichment Cocktail (Stem Cell, 15062). This cocktail contains mouse and rat monoclonal antibodies purified from mouse ascites fluid or hybridoma culture supernatant, by affinity chromatography using protein A or Protein G sepharose. These antibodies are bound in bispecific tetrameric antibody complexes which are directed against cell surface antigens on human hematopoietic cells (CD8, CD16, CD19, CD36, CD56 CD66b, TCRγ/δ) and glycophorin A on red blood cells. The rosetteSep antibody cocktail crosslinks unwanted cells in human whole blood to multiple red blood cells, forming immunorosettes. This increases the density of unwanted cells, such that they pellet along with the free red blood cells when centrifuged over a buoyant density medium such as lymphocytes separation medium (Eurobio, CMSMSL01-01).
Whole blood was incubated with RosetteSep Human CD4+ T cell Enrichment Cocktail at 50 μl/ml for 20 minutes at room temperature under gentle shaking (100 rpm), diluted with an equal volume of PBS+2% foetal bovine serum (FBS) and mixed gently. The diluted samples were centrifuged 20 minutes at 1200×g on top of lymphocytes separation medium. The enriched cells were then collected from the density medium at plasma interface and washed twice with PBS+2% FBS. Cells were subsequently resuspended in RPMI 1640 medium (Lonza) supplemented with 5% FBS, 50 mM HEPES pH 7.4, glutamine, penicillin, streptomycin and fungizone (complete medium), counted with a Moxi Z mini automated cell counter (ORFLO, MXZ000). Cells suspension was adjusted at 7×10^6 cells/ml and equilibrated at least 2 h at 37° C. in a 5% CO2 humidified atmosphere.
The enriched CD4-T cell population was controlled by flow cytometry on a cytoflex (Beckman coulter). The quiescence of recovered CD4 T-cells was controlled by the low level of IL-2Rα (CD25).

In assay [1] the test system is gC1qR KO Jurkat E6.1 T cells. The experiment in a line: PLA2-GIB enzymatic assay on [3H] arachidonic acid labelled gC1qR KO Jurkat E6.1 T cells. The format is cell-based, human. The following applies: gC1qR KO cells (1D5 or 2G9), pretreatment 21 h, FIG. 13. The text has this: Generation of gC1qR KO Jurkat E6.1 T cells—The global strategy for the development of Jurkat cells deprived of C1QBP is based on the design of a targeting vector permitting bi-allelic inactivation of C1QBP gene via homologous recombination. Human C1QBP homologous regions isogenic with the Jurkat E6.1 T cell line (ECACC 88042803) has been used. The targeting vector has been synthetized by Genewiz and cloned into the pUC57-Amp vector. […] The NeoR cassette was cloned using BamHI/NotI restriction sites. The targeting vector has been verified by DNA restriction digestion cut with selected restriction enzymes (APaL1, Drd1, Pvu1, Pvu2, BamH1/NotI, Not1/NcoI, NEB) and target region sequencing. The DNA primers corresponding to C1QBP sgRNA (1828-Crispr_1A: CACC-[…] and 1828-Crispr_1B: AAAC-[…]) were hybridized and cloned (Quick Ligase-New England Biolabs, NEB) into the pX330 plasmid (Addgene, 42230; Feng Zhang, MIT) using BbsI restriction site (NEB).
The Jurkat cells (5×10^6) were resuspended in 100 μL of Opti-MEM and 7 μg of CRISPR/Cas9 plasmid and 2.5 μg of targeting vector were added. The cells were electroporated with a Nepa21 electroporator. After cell selection in G418 selective medium, the Jurkat cell clones were prescreened by PCR genotyping. Independent cell clones knocked-out for C1QBP gene were amplified and verified by PCR genotyping and target region sequencing. […]

As to “NH2-PWNASWSNKSLDDIW—COOH (H-PWNASWSNKSLDDIW-OH) [PEP3]”, the “inhibition of pSTAT5 NT” value in the assay on pSTAT5 NT in CD4 T cells (0.025 μg/ml of PEP3 with 5 nM of PLA2-GIB, FIG. 5B) stood at 18%; in the assay on pSTAT5 NT in CD4 T cells (0.5 μg/ml of PEP3 alone, n=3 donors, FIG. 5C), 5%. In addition, the “effect on pSTAT5 NT” value in the assay with pSTAT5 NT in CD4 T cells (peptide alone, without PLA2-GIB, FIG. 5B) is recorded as “no effect”. For the same substance, in assay [1], the “PLA2-GIB activity vs scrambled PEP3” value is given as “not”.

The record behind these values is patent US20200399392A1, “INHIBITORS OF PLA2-G1B COFACTORS FOR TREATING CANCER” (priority 2018, published 2020).
